In general, IC50 refers to the midpoint of a concentration-inhibition curve. Lower therefore signals inhibition by little substance.

These results are taken from article PMC10620212, “Postprandial glycemic and lipidemic effects of black rice anthocyanin extract fortification in foods of varying macronutrient compositions and matrices” (NPJ Science of Food, 2023).

For one series, the target named is α-glucosidase. The series can be described thus: In-vitro starch hydrolase inhibition (starch turbidity assay), α-glucosidase. The series is classed as biochemical. Conditions: mean (SD). How it is done:
(§1) To determine the inhibitor activities of major ACN species, 50 μL of enzyme solution was mixed with 50 μL of inhibitor solution of different concentrations and incubated for 15 min at 37 °C. The reaction was initiated by mixing 100 μL of 1% gelatinized wheat starch solution into the enzyme-inhibitor mixtures. Changes in turbidity were immediately monitored at 660 nm for 2 h in a microplate reader preincubated at 37 °C, with one reading per minute, while shaking in between readings to minimize starch sedimentation. Enzyme activities were inversely proportional to the AUC for turbidity readings. The percentage inhibition (%I) was defined as:7 %I=(AUCSample−AUCControl)/AUCSample×100 in which AUCSample is the area under the curve for the inhibitor, and AUCControl is the area under the curve without inhibitors.

A further series addresses T1, α-amylase (Sus scrofa, UniProt P00690).
T1 sequence (P00690 16-511): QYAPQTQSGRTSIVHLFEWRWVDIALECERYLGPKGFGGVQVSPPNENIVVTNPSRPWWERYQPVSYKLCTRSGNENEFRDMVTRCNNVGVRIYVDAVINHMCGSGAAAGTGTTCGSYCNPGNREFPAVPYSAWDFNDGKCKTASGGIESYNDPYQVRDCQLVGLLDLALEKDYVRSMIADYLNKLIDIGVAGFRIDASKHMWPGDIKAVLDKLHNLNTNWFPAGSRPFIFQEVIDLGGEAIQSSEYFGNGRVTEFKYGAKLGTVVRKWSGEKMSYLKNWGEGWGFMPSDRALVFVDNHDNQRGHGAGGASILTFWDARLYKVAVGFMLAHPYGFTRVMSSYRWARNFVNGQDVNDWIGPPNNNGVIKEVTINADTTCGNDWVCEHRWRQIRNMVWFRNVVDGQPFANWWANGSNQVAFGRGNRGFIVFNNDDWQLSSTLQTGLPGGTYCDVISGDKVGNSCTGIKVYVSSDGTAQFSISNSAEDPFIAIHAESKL
The experiment in a line: In-vitro starch hydrolase inhibition (starch turbidity assay), α-amylase. The series is classed as biochemical, porcine. Conditions: mean (SD). How it is done:
as §1

Details of series [1]: method as in PMID 24602005, PMID 25347327. Conditions: previous reports; cited from earlier work.
Series [2] is described as follows: Bread trial: plasma bioavailability of anthocyanins and phenolic metabolites. Type of series: in vivo, human. Conditions: for change in plasma concentration, mean difference between 60 and 120 min: 4-BB group. How it is done: Bioavailability analysis was performed in the Bread trial according to the methods by Kay, et al.[58]. […] The sample was drained off in a vacuum manifold and washed with 2 volumes of acidified water. The remaining ACN extract was eluted with 6 mL acidified methanol, and subsequently brought to dryness at 25 °C under a continuous stream of nitrogen gas. The residue was dissolved in 200 μL of 0.1% v/v formic acid and filtered through a 13 mm 0.22 μm PTFE hydrophilic syringe filter. The resulting solution was analyzed using a reverse-phased C18 Sunfire column (250 × 4.6 mm/5 μm; Waters, Wexford, Ireland) on an HPLC system (Shimadzu Prominence, Shimadzu, Kyoto, Japan) connected with a DAD. The injection volume was 50 μL. The flow rate and oven temperature were maintained at 1 mL/min at 25 °C. A gradient elution process was applied (mobile phase A: 5% v/v formic acid; mobile phase B: 100% acetonitrile): 0% B for 5 min, 10% B at 20 min, 13% B at 40 min, 20% B at 44 min, 25% B at 50 min, and 100% B at 55 min. Detection of ACNs was performed at 520 nm; while its metabolites, ferulic acid, vanillic acid, and protocatechuic acid were detected at 280 nm. Identification and quantification of each ACN and metabolite were based on matching the retention time and peak areas with the external calibration curve of respective standards.

Take `OC[C@H]1O[C@@H](Oc2cc3c(O)cc(O)cc3[o+]c2-c2ccc(O)c(O)c2)[C@H](O)[C@@H](O)[C@@H]1O` [C3G, cyanidin-3-glucoside]: the IC50 at α-glucosidase is 1.12 mM; at α-amylase, 364 µM.

Take `C[C@@H]1O[C@@H](OC[C@H]2O[C@@H](Oc3cc4c(O)cc(O)cc4[o+]c3-c3ccc(O)c(O)c3)[C@H](O)[C@@H](O)[C@@H]2O)[C@H](O)[C@H](O)[C@H]1O` [C3R, cyanidin-3-rutinoside]: the IC50 worked out at 0.904 mM on α-glucosidase and 483 µM on α-amylase.

As for `COc1cc(/C=C/C(=O)O)ccc1O` [FA, ferulic acid], in series [1], the “time of peak plasma concentrations” value was 0.5 to 1 h. The “change in plasma concentration, mean difference between 60 and 120 min” value in series [2] is reported as 1.08.

Turning to `COc1cc(-c2[o+]c3cc(O)cc(O)c3cc2O[C@@H]2O[C@H](CO)[C@@H](O)[C@H](O)[C@H]2O)ccc1O` [P3G, peonidin-3-glucoside], the IC50 against α-glucosidase stood at 1.34 mM; at α-amylase, 649 µM.

As for `O=C(O)c1ccc(O)c(O)c1` [PCA, protocatechuic acid], in series [1], the “time of peak plasma concentrations” value is 1 to 2 h. Also, the “share of total polyphenols in plasma at 60 min peak concentrations” value in series [2] (Bread trial) is 93.9%.

Consider `COc1cc(C(=O)O)ccc1O` [VA, vanillic acid], for which the “time of peak plasma concentrations” value in series [1] was 0.5 to 1 h. Further, in series [2], the “change in plasma concentration, mean difference between 60 and 120 min” value was 0.439.
